Values quoted from earlier work, collected in patent publication US20070122350A1, “Safe and effective methods of administering therapeutic agents” (Transave, Inc., priority 2005, published 2007).

Settings: OSHA

N.N.[Cl][Pt][Cl] [cisplatin, Cis-diamminedichloroplatinum(II)]
legal airborne permissible exposure limit (PEL) (averaged over an eight-hour work shift): 2·10^−3 mg/m^3
legal airborne permissible exposure limit (PEL), equivalent (per liter of air during 480 consecutive minutes): 2 ng/L
